In ChEMBL document CHEMBL1949647, “Design, synthesis and biological evaluation of peptidyl-vinylaminophosphonates as novel cysteine protease inhibitors” (Bioorg Med Chem, 2011):
Peptide text beside a SMILES is read from it. * marks the point of attachment. Cbz = O=C(OCc1ccccc1)*

target: T1, Papain (Carica papaya, UniProt P00784); assay: Inhibition of papaya papain using methyl hippurate as substrate by titrimetric method
T1 sequence (P00784 whole entry): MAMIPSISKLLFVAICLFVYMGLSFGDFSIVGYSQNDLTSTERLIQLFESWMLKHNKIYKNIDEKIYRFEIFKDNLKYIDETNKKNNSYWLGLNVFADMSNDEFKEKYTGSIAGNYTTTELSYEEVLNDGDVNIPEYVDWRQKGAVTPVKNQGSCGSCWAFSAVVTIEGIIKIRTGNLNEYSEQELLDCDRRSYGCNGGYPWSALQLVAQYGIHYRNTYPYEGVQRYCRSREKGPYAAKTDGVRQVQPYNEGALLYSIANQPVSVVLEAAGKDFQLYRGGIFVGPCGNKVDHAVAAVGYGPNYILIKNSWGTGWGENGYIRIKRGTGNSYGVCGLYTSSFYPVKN

| SMILES | Ki [µM] |
| --- | --- |
| COC(=O)N[C@@H](Cc1ccccc1)C(=O)NCC#N | 6890 |

target: Cathepsin B (Homo sapiens, UniProt P07858); assay: Inhibition of cathepsin B

| SMILES | Ki [µM] |
| --- | --- |
| CC[C@H](C)[C@H](NC(=O)[C@H](CCCNC(=N)N)NC(=O)OCc1ccccc1)C(=O)N[C@H](/C=N/NC(N)=O)Cc1ccccc1 | 0.5 |
| C[C@H](NC(=O)OCc1ccccc1)C(=O)N[C@@H](Cc1ccccc1)C(=O)OCF | 174000 |
| O=C(O)CNC(=O)[C@H](Cc1ccccc1)NC(=O)OCc1ccccc1 (Cbz-Phe-Gly-OH) | 5610 |
| COC(=O)CNC(=O)[C@H](Cc1ccccc1)NC(=O)OCc1ccccc1 (Cbz-Phe-Gly-OMe) | 13500 |

target: T1, Papain; assay: Inhibition of papaya papain

| SMILES | Ki [µM] |
| --- | --- |
| CC[C@H](C)[C@H](NC(=O)[C@H](CCCNC(=N)N)NC(=O)OCc1ccccc1)C(=O)N[C@H](/C=N/NC(N)=O)Cc1ccccc1 | 0.023 |
| O=C(O)CNC(=O)[C@H](Cc1ccccc1)NC(=O)OCc1ccccc1 (Cbz-Phe-Gly-OH) | 19600 |
| COC(=O)CNC(=O)[C@H](Cc1ccccc1)NC(=O)OCc1ccccc1 (Cbz-Phe-Gly-OMe) | 2700 |
| CC(C)[C@H](NC(=O)[C@H](CCCNC(=N)N)NC(=O)N[C@@H](Cc1ccccc1)C(=O)O)C(=O)N[C@H](C=O)CCCNC(=N)N [ANTIPAIN] | 265 |

target: T1, Papain; assay: Inhibition of papaya papain using BAPNA as substrate assessed as p-nitroaniline release by spectrophotometric analysis

| SMILES | IC50 [µM] |
| --- | --- |
| CCOP(=O)(/C=C/C(NC(=O)[C@H](Cc1ccccc1)NC(=O)OCc1ccccc1)c1ccccc1)OCC (mixture of isomers) | 30 |
| CCOP(=O)(/C=C/C(NC(=O)[C@H](CC(C)C)NC(=O)OCc1ccccc1)c1ccccc1)OCC (mixture of isomers) | > 200 |
| CCOP(=O)(/C=C/C(NC(=O)[C@H](Cc1ccccc1)NC(=O)OC(C)(C)C)c1ccccc1)OCC (mixture of isomers) | 40 |
| CCOP(=O)(/C=C/C(NC(=O)[C@H](CC(C)C)NC(=O)OC(C)(C)C)c1ccccc1)OCC (mixture of isomers) | > 200 |
| CCOP(=O)(/C=C/C(NC(=O)[C@H](Cc1ccc(O)cc1)NC(=O)OCc1ccccc1)c1ccccc1)OCC (mixture of isomers) | 54 |
| CCOP(=O)(/C=C/C(NC(=O)[C@H](Cc1c[nH]c2ccccc12)NC(=O)OCc1ccccc1)c1ccccc1)OCC (mixture of isomers) | > 200 |
| CCOP(=O)(/C=C/C(NC(=O)[C@H](CC(C)C)NC(=O)OCC1c2ccccc2-c2ccccc21)c1ccccc1)OCC (mixture of isomers) | > 200 |
| CCOP(=O)(/C=C/C(NC(=O)[C@H](CC(C)C)NC(=O)[C@H](Cc1ccccc1)NC(=O)OC(C)(C)C)c1ccccc1)OCC (mixture of isomers) | 132 |
| CCOP(=O)(/C=C/C(NC(=O)[C@H](Cc1ccccc1)NC(=O)[C@H](Cc1ccccc1)NC(=O)OC(C)(C)C)c1ccccc1)OCC (mixture of isomers) | 83 |
| CCOP(=O)(/C=C/C(NC(=O)[C@H](Cc1ccccc1)NC(=O)[C@H](Cc1ccccc1)NC(=O)OCc1ccccc1)c1ccccc1)OCC (mixture of isomers) | 125 |
